Measurements reported in patent US20050209157A1, “Short bioactive peptides and methods for their use” (priority 2001, published 2005).
Where two headings read alike, the source gives them in different places. No end group written: not given here.

Experiments:
P. aeruginosa H374 = format: cell-based, Pseudomonas aeruginosa; conditions: for MIC Cm-comb.: MIC of chloramphenicol with peptide at ¼ MIC; for MIC Nal-comb.: MIC of nalidixic acid with peptide at ¼ MIC; for FIC Index: 0.5 or less = synergy
Summary of the method: (§1)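 FIC index, computed as 0.25 plus the ratio of combination to single-agent antibiotic MIC, defines synergy when 0.5 or below. Peptide fixed at one quarter MIC while chloramphenicol or nalidixic acid was serially diluted two-fold; antibiotic-alone MICs served as baselines.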

P. aeruginosa H774 = format: cell-based, Pseudomonas aeruginosa; conditions: P. aeruginosa H744; nalidixic acid + peptide at ¼ MIC; 0.5 or less = synergy
Summary of the method: as §1

P. aeruginosa = format: cell-based, Pseudomonas aeruginosa; conditions: P. aeruginosa H744; MIC of nalidixic acid with peptide at ¼ MIC
Summary of the method: as §1

Pseudomonas aeruginosa = experiment: Serum inactivation of peptides, serum MIC; format: cell-based; conditions: for MIC 30 min treatment: sheep serum 37° C. 30 minutes; for MIC 2 hr treatment: sheep serum 37° C. 2 hours
Description: Subsequently, the serum MICs against Pseudomonas aeruginosa were conducted to determine extent of serum inactivation of the peptides.

[1] = Solubility of peptides in sheep serum; format: physicochemical
MCF7 = experiment: Anti-cancer assay, MTT, LD50; format: cell-based; conditions: for LD50 MCF7: MCF7 breast adenocarcinoma line, MTT, 24 hours with peptide
From the text: (§2) Numbers are LD50 values (μg/mL).

in vitro [2] = format: cell-based, human; conditions: human, human red blood cells
[3] = Leukocyte (WBC) inhibition, toxicity LD50; format: cell-based, human; conditions: male, human, human leukocytes (buffy coat cells, mostly PBMCs); Table 41, lower part
Description: In vitro viability of human leukocyte cells in the presence of different peptides at different concentrations was determined by an Alamar Blue protocol. Alamar Blue (Promega, Madison, Wis.) is an indicator dye, formulated to measure quantitatively the proliferation and cytotoxicity of the cells. The dye consists of an oxidation-reduction (redox) indicator that yields a calorimetric change and a fluorescent signal in response to cellular metabolic activity.
Assay protocol: Blood from a human was drawn and centrifuged at 1500 rpm for 15 minutes at room temperature. The buffy coat cells at the plasma-red blood cell interface were aspirated. Buffy coat cells (mainly lymphocyte cells) were then transferred into 15 ml centrifuge tubes containing 5 ml of RPMI-1640 medium+10% Fetal Bovine Serum (Gibco, Grand Island, N.Y.). Additional medium was added to the tubes to bring the volume up to 10 ml. The buffy coat suspension was then carefully layered on 5 ml of Histopaque (Sigma Chemical Co., St. Louis, Mo.) and centrifuged at 1500 rpm for 30 minutes at room temperature. The interface which is mostly PBMCs (peripheral mononuclear cells) was aspirated and transferred to a 15 ml conical centrifuge tube and, resuspended in 2 ml cold RPMI-1640 and brought up to 15 ml with cold RPMI-1640 medium. Cells were centrifuged at 1500 rpm for 10 minutes. The supernatant was then aspirated and discarded. The cell pellet was re-suspended in 1 ml of cold RPMI 1640 and brought up to 15 ml with RPMI medium. This step was repeated twice, except that in the last step, the cells were resuspended with 1 ml of cold RPMI-1640 medium and cell counts were performed with a hemocytometer according to the Sigma cell culture catalogue.
Pokewood mitogen was used as a control along with positive and negative controls. Negative control cells were killed with 70% methanol. Positive (+) control cells were incubated in RPMI medium (untreated). […] of AlamarBlue was added to the cells, and readings were taken after 24 hours, 48 hours, 72 hours, and 96 hours using a fluorimeter (excitation 544/transmission 590 nm).
In choosing a peptide for possible treatment of a given indication it is important to match the therapeutic activity and specificity of the peptide with its possible toxic properties.
The protocols for WBC and WI38 stimulation have been discussed above. The RBC protocol follows Table 24.

[4] = test system: MCF7 line of breast cancer cells
in vitro [5] = conditions: human, WI38 normal lung fibroblast cells
[6] = test system: Pseudomonas aeruginosa ATCC 9027; experiment: Antimicrobial assay I, MIC by OD measurement; format: cell-based; conditions: 37° C. for 24 hours, absorbance 620 nm
[7] = test system: Staphylococcus aureus ATCC 6538; experiment: Antimicrobial assay I, MIC by OD measurement; format: cell-based; conditions: 37° C. for 24 hours, absorbance 620 nm
[8] = test system: yeast (Saccharomyces cerevisiae); experiment: Antimicrobial assay I, yeast assay in RPMI 1640; format: cell-based; conditions: RPMI 1640 media
BMKC = experiment: Anti-cancer assay, MTT, LD50; format: cell-based; conditions: BMKC cloned melanoma line, 24 hours with peptide
From the text: as §2

H1299 = experiment: Anti-cancer assay, MTT, LD50; format: cell-based; conditions: 24 hours with peptide, lung large cell carcinoma
From the text: as §2

HeLaS3 = experiment: Anti-cancer assay, MTT, LD50; format: cell-based; conditions: 24 hours with peptide, cervical carcinoma
From the text: as §2

PC3 = experiment: Anti-cancer assay, MTT, LD50; format: cell-based; conditions: 24 hours with peptide, prostate adenocarcinoma
From the text: as §2

SW480 = experiment: Anti-cancer assay, MTT, LD50; format: cell-based; conditions: SW480 colon adenocarcinoma line, 24 hours with peptide
From the text: as §2

WI38 = conditions: MTT, 24 hours with peptide; normal fibroblast line
[9] = chloramphenicol + peptide at ¼ MIC
[10] = nalidixic acid + peptide at ¼ MIC, FIC=0.25+MIC comb/MIC alone
[11] = pH 7, hemolytic assay, concentration at 50% hemolysis, 1 hour at 37° C., read-out: LD50
[12] = LD50 WI38, WI38 normal lung fibroblast line, MTT, 24 hours with peptide

Substance	MIC Cm-comb. (P. aeruginosa H374)	MIC Nal-comb. (P. aeruginosa H374)	FIC Index (P. aeruginosa H374; [9])	FIC Index (P. aeruginosa H374; [10])	FIC Index (P. aeruginosa H774)	MIC Nal-comb. (P. aeruginosa)	MIC 30 min treatment (Pseudomonas aeruginosa; first of two columns)	MIC 30 min treatment (Pseudomonas aeruginosa; second of two columns)	MIC 2 hr treatment (Pseudomonas aeruginosa; first of two columns)	MIC 2 hr treatment (Pseudomonas aeruginosa; second of two columns)	Solubility ([1]; sheep serum, […], 70% serum)	LD50 BMKC (BMKC)	H1299 LD50 (H1299)	HeLaS3 LD50 (HeLaS3)	LD50 MCF7 (MCF7)	PC3 LD50 (PC3)	LD50 SW480 (SW480)	HC50 at 1 h (in vitro [2]; [11])	WI38 LD50 (WI38)	CC50 at 24 h (in vitro [5]; [12])	other results
FAKKLAKKLKKLAKKLAK-NH2 [P69]	8 µg/mL	2500 µg/mL	0.75	0.75	0.75	312 µg/mL	20 µg/mL	20 µg/mL	20 µg/mL	20 µg/mL	Precipitated										
WALAL-NH2 [145 (184)]																					MCF7 LD50 (MCF7; Table 41, lower part): 240 µg/mL; HC50 at 1 h (in vitro [2]; pH 7, Table 41, lower part, read-out: RBC LD50): 850 µg/mL; CC50 [3]: 410 µg/mL; MCF7 LD50 ([4]; agent alone): 240 µg/mL; Active agent LD50 on MCF7 cells: Total conc. ([4]; peptide plus tamoxifen concentration at LD50): 14 µg/mL; Active agent LD50 on MCF7 cells: Peptide conc. ([4]; peptide with tamoxifen, peptide concentration at LD50): 10 µg/mL; Active agent LD50 on MCF7 cells: Tamox. conc. ([4]; tamoxifen concentration at LD50 (peptide with tamoxifen; tamoxifen alone in its own line)): 4 µg/mL; CC50 at 24 h (in vitro [5]; WI38 LD50, Table 41, lower part): 1000 µg/mL
KWKLFKKKTKLFKKFAKKLAKKL-OH [P81]	16 µg/mL	5000 µg/mL	1.25	1.25	1.25	624 µg/mL	20 µg/mL	20 µg/mL	20 µg/mL	20 µg/mL	Precipitated	12 µg/mL	22 µg/mL	19 µg/mL	63 µg/mL	170 µg/mL	13 µg/mL	8 µg/mL	8 µg/mL	8 µg/mL	paerug9027 (MIC) [6]: > (> indicates greater than 200 μg/mL); staph6538 (MIC) [7]: 10 µg/mL; yeast (MIC or MFC) [8]: > (> indicates greater than 200 μg/mL)
FALALKALKKLLKKLKKLAKKAL-NH2 [P24]	16 µg/mL	5000 µg/mL	1.25	1.25	1.25	624 µg/mL	40 µg/mL	20 µg/mL	20 µg/mL	20 µg/mL	Precipitated	85 µg/mL	72 µg/mL	145 µg/mL	26 µg/mL	38 µg/mL	38 µg/mL	10 µg/mL	55 µg/mL	55 µg/mL	
VALALKALKKALKKLKKALKKAL-OH [P508]	8 µg/mL	5000 µg/mL	0.75	1.25			40 µg/mL	20 µg/mL	40 µg/mL	20 µg/mL	Soluble							70 µg/mL			change of activity by exposure to serum (serum MIC against Pseudomonas aeruginosa) (Pseudomonas aeruginosa; sheep serum, […], 37° C. for 30 minutes or 2 hours): only modestly decreased; Solubility ([1]; sheep, 70% sheep serum): ≥ 1280 µg/mL
